Consider 16 compounds from ChEMBL document CHEMBL2040720, “Potent CXCR4 antagonists containing amidine type Peptide bond isosteres” (ACS Med Chem Lett, 2011).

Molecules are shown by their SMILES. Calls of active or inactive are those of the source. The rule behind the calls is not given here.

A word on the EC50: it is the concentration that produces a half-maximal response. As a reminder, the IC50 is the midpoint of a concentration-inhibition curve.

In data set [1] the test system is Human immunodeficiency virus 1. The experiment in a line: Antiviral activity against Human immunodeficiency virus 1 NL4.3 infected in human HeLa cells assessed as inhibition of viral replication after 48 hrs by MAGI assay. In kind it is functional, organism-based. Conditions: Human immunodeficiency virus 1, NL4.3, HeLa.
Data set [2] has as its target Atypical chemokine receptor 3 (Homo sapiens) (UniProt P25106). Put plainly: Inhibition of CXCR7 interaction with SDF1alpha.
In data set [3] the test system is Human immunodeficiency virus 1. Put plainly: Antiviral activity against CCR5-tropic Human immunodeficiency virus 1 Ba-L infected in human HeLa cells assessed as inhibition of viral replication at 10 uM after 48 hrs by MAGI assay. In kind it is functional, organism-based.
Data set [4] relates to Human immunodeficiency virus 1. Put plainly: Antiviral activity against Human immunodeficiency virus 1 3B infected in human HeLa cells assessed as inhibition of viral replication after 48 hrs by MAGI assay. Type of data set: functional, organism-based.
For data set [5], the system named is HeLa. The experiment in a line: Cytotoxicity against human HeLa cells at 10 uM by MAGI assay. Type of data set: cell-based.
Data set [6] deals with C-X-C chemokine receptor type 4 (Homo sapiens, UniProt P61073). Put plainly: Displacement of [125I]-SDF-1alpha from CXCR4 receptor expressed in HEK293 cells after 1 hr by scintillation counting. Type of data set: cell-based. (Displacement assays read how much labelled ligand stays bound in the presence of the test substance.)
Sequence of C-X-C chemokine receptor type 4 (P61073 whole entry): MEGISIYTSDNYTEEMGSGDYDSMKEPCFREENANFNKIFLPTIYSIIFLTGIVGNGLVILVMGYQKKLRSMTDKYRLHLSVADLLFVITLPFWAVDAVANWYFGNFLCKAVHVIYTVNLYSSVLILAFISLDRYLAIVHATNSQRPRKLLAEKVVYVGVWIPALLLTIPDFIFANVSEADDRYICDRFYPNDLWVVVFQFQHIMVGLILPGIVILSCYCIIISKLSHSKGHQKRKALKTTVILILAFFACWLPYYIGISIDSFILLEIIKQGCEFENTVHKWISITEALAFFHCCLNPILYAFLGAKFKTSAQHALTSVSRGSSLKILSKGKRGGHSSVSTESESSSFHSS

Sequence of Atypical chemokine receptor 3 (Homo sapiens) (P25106 whole entry): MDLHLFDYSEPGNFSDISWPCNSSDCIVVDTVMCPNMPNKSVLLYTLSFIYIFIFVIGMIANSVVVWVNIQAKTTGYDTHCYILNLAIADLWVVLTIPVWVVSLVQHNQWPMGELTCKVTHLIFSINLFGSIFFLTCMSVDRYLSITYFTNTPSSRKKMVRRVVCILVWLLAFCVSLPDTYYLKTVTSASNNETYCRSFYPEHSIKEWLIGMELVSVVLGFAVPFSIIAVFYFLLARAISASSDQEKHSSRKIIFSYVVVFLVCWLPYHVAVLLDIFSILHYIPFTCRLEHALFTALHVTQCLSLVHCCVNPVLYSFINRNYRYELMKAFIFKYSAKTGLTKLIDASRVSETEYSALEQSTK

For `N=C(N)NCCC[C@@H]1NC(=O)[C@H](CCCNC(=N)N)NC(=O)[C@@H](Cc2ccc(O)cc2)NC(=O)CNC(=O)[C@H](Cc2ccc3ccccc3c2)NC1=N`, the results for the EC50 in data set [1] and in data set [4] were 4.4 nM and 6.3 nM, respectively. The inhibition result in data set [2] was “inactive”. Further, the result in data set [3] was inactive.
With `N=C(N)NCCC[C@@H]1NC(=O)[C@H](CCCNC(=N)N)NC(=O)[C@@H](Cc2ccc(O)cc2)NC(=N)CNC(=O)[C@H](Cc2ccc3ccccc3c2)NC1=O`, the EC50 in data set [1] amounted to 1.3 nM; in data set [4], 0.61 nM. Moreover, the inhibition entry in data set [2] is “inactive”. The result in data set [3] was inactive.
In the case of `NC(N)=NCCC[C@@H]1N=C(N)[C@H](CCCN=C(N)N)NC(=O)[C@@H](Cc2ccc(O)cc2)NC(=O)CNC(=O)[C@H](Cc2ccc3ccccc3c2)NC1=O`, in data set [5], the Activity entry is listed as “Non-toxic”. This compound returned a half-maximal inhibitory concentration (IC50) in data set [6] of 16 nM.
The matching figures for `NC(N)=NCCC[C@@H]1NC(=O)[C@@H](Cc2ccc(O)cc2)NC(=O)CNC(=O)[C@H](Cc2ccc3ccccc3c2)N=C(N)[C@H](CCCN=C(N)N)NC1=O`: “Non-toxic” and 11 nM.
The matching figures for `NC(N)=NCCC[C@@H]1NC(=O)[C@H](CCCN=C(N)N)NC(=O)[C@@H](Cc2ccc(O)cc2)NC(=O)CN=C(N)[C@@H](Cc2ccc3ccccc3c2)NC1=O`: “Non-toxic” and 4.9 nM.
For `N=C(N)NCCC[C@@H]1NC(=N)[C@H](Cc2ccc(O)cc2)NC(=O)CNC(=O)[C@H](Cc2ccc3ccccc3c2)NC(=O)[C@H](CCCNC(=N)N)NC1=O`, the concentration giving a half-maximal response (EC50) in data set [1] was 248 nM; in data set [4], 238 nM. Besides, the inhibition entry in data set [2] is “inactive”. The result in data set [3] was inactive.
In the case of `CN1C(=O)[C@@H](Cc2ccc(O)cc2)NC(=O)CNC(=O)[C@H](Cc2ccc3ccccc3c2)NC(=O)[C@H](CCCN=C(N)N)NC(=O)[C@H]1CCCN=C(N)N`, the IC50 in data set [6] is 37 nM.
As for `CN1C(=O)[C@@H](Cc2ccc(O)cc2)NC(=O)CNC(=O)[C@H](Cc2ccc3ccccc3c2)NC(=O)[C@H](CCCNC(=N)N)NC(=O)[C@H]1CCCNC(=N)N`, the EC50 in data set [1] and in data set [4] was 7.6 nM throughout. The outcome in data set [3] was inactive.
On to `N=C(N)NCCC[C@@H]1NC(=O)[C@@H](Cc2ccc(O)cc2)NC(=O)CNC(=O)[C@H](Cc2ccc3ccccc3c2)NC(=O)[C@H](CCCNC(=N)N)NC1=N`, for which the EC50 in data set [1] turned out to be 1.9 nM; in data set [4], 1.2 nM. Moreover, the inhibition entry in data set [2] was “inactive”. Moreover, the outcome in data set [3] was inactive.
For the compound `NC(N)=NCCC[C@@H]1N=C(N)[C@@H](Cc2ccc(O)cc2)NC(=O)CNC(=O)[C@H](Cc2ccc3ccccc3c2)NC(=O)[C@H](CCCN=C(N)N)NC1=O`, the Activity entry in data set [5] was “Non-toxic”. Further, the IC50 in data set [6] stood at 679 nM.
For the compound `N=C(N)NCCC[C@@H]1NC(=N)[C@@H](Cc2ccc(O)cc2)NC(=O)CNC(=O)[C@H](Cc2ccc3ccccc3c2)NC(=O)[C@H](CCCNC(=N)N)NC1=O`, the EC50 in data set [1] turned out to be 300 nM; in data set [4] it was 258 nM. The inhibition entry in data set [2] was “inactive”. The outcome in data set [3] was inactive.
Take `N=C(N)NCCC[C@@H]1NC(=O)[C@H](CCCNC(=N)N)NC(=O)[C@@H](Cc2ccc(O)cc2)NC(=O)CNC(=N)[C@H](Cc2ccc3ccccc3c2)NC1=O`: in data set [5], the Activity entry is “Non-toxic”. Also, the values for the EC50 in data set [1] and in data set [4] were 1.4 nM and 1 nM, respectively. In addition, the inhibition entry in data set [2] was “inactive”. For the same compound, the outcome in data set [3] was inactive. Moreover, the IC50 in data set [6] is 4.2 nM.
Regarding `NC(N)=NCCC[C@@H]1N=C(N)[C@H](Cc2ccc(O)cc2)NC(=O)CNC(=O)[C@H](Cc2ccc3ccccc3c2)NC(=O)[C@H](CCCN=C(N)N)NC1=O`, in data set [5], the Activity result is on record as “Non-toxic”. In data set [6], this compound had an IC50 of 334 nM.
The matching figures for `NC(N)=NCCC[C@@H]1NC(=O)[C@H](CCCN=C(N)N)NC(=O)[C@@H](Cc2ccc(O)cc2)N=C(N)CNC(=O)[C@H](Cc2ccc3ccccc3c2)NC1=O`: “Non-toxic” and 9.4 nM.
Consider `N=C(N)NCCC[C@@H]1NC(=O)[C@H](CCCNC(=N)N)NC(=O)[C@@H](Cc2ccc(O)cc2)NC(=O)CNC(=N)[C@@H](Cc2ccc3ccccc3c2)NC1=O`, for which the concentration for a half-maximal effect (EC50) in data set [1] came out at 2.2 nM; in data set [4] it was 2 nM. In addition, the inhibition result in data set [2] is “inactive”. Further, the outcome in data set [3] was inactive.
Consider `N=C(N)NCCC[C@@H]1NC(=O)[C@H](CCCNC(=N)N)NC(=O)[C@@H](Cc2ccc(O)cc2)NC(=O)CNC(=O)[C@H](Cc2ccc3ccccc3c2)NC1=O`, for which the 50% effective concentration (EC50) in data set [1] and in data set [4] was 21 nM in each case. Further, the result in data set [3] was inactive.
